Here are results for 2 compounds from patent US6586455B1, “Treatment of liposarcomas using a combination of thiazolidinediones and retinoid X receptor selective agonists” (The Salk Institute for Biological Studies, priority 1996, dated 2003).

Holding throughout (type): cell-based
One test has as its system NIH-vector cells. Put plainly: Adipocyte differentiation, oil red O staining, NIH-vector cells. The conditions noted are these: 7 days; for % lipid containing cells: range over three experiments. On the procedure:
Simultaneous exposure of competent cells to both PPARγ and RXR-specific ligand was investigated to determine if such combination might provide a stronger adipogenic signal than a PPARγ ligand alone. The ability of the. […] It has previously been shown that wild-type NIH-3T3 cells express RXRα, but not PPARγ. NIH-vector and NIH-PPARγ cells were cultured as described in the Examples. […] After an additional four days of culture, cells were fixed and stained with oil red O. Data are presented in Table 1 as the range of morphologically recognizable differentiation observed for each line over three separate experiments.

The test system of another test is LS857 cells. The test can be described thus: Differentiation / lipid accumulation of primary human liposarcoma cells LS857. The conditions noted are these: 7 days. As to the method:
(§1) Liposarcomas have presumably acquired one or more genetic defects that interfere with the course of normal adipocyte development. The observation that PPARγ is expressed consistently in these tumors raised the possibility that the malignant cells might be forced to complete the differentiation program by maximally activating the PPARγ pathway. To address this possibility, primary cells isolated from three human liposarcomas were cultured in vitro. Primary cell strains LS857 and LS175 were derived from well differentiated liposarcomas and LS707 was derived from an intermediate grade myxoid/round cell liposarcoma (see Table 3). High grade pleomorphic liposarcoma cells could not be expanded to sufficient numbers to permit studies of differentiation. A primary leiomyosarcoma cell line LM203 was cultured as a control. To confirm that these cultures consisted of malignant tumor-derived cells, cytogenetic analysis was performed.
When cultured in the presence of fetal bovine serum and insulin, conditions permissive for adipocyte differentiation, all three cell lines maintain a fibroblastic morphology. LS175 cells contained small amounts of stainable lipid under these conditions. […] The degree of morphologically recognizable differentiation varied from 40% in the LS857 cells to 75% in the LS175 cells. […] This experiment was performed at least twice with each cell strain with quantitatively and qualitatively similar results.
The ability of LG268 to promote differentiation of human liposarcoma cells was then examined. […] To further characterize the effects of PPARγ and RXR ligands on liposarcoma cells, the expression of adipocyte-specific markers were examined by Northern blotting. LS857 cells, like the tumor from which they were derived, express PPARγ mRNA. Treatment of LS857 cells with pioglitazone leads to the induction of two markers of terminal adipocyte differentiation, the MRNAs encoding aP2 and adipsin. […]

The test system of another test is NIH-PPARγ cells. The test can be described thus: Adipocyte differentiation, oil red O staining, NIH-3T3 fibroblasts expressing PPARγ. The conditions noted are these: 7 days; for % lipid containing cells: NIH-PPARγ cells, range over three experiments. As to the method:
Simultaneous exposure of competent cells to both PPARγ and RXR-specific ligand was investigated to determine if such combination might provide a stronger adipogenic signal than a PPARγ ligand alone. The ability of the. […] It has previously been shown that wild-type NIH-3T3 cells express RXRα, but not PPARγ. NIH-vector and NIH-PPARγ cells were cultured as described in the Examples.

The next test deals with LS175 cells. The test can be described thus: Differentiation / lipid accumulation of primary human liposarcoma cells LS175. The conditions noted are these: 10 μM, 7 days. On the procedure: as §1
When cultured in the presence of fetal bovine serum and insulin, conditions permissive for adipocyte differentiation, all three cell lines maintain a fibroblastic morphology. LS175 cells contained small amounts of stainable lipid under these conditions. […] The degree of morphologically recognizable differentiation varied from 40% in the LS857 cells to 75% in the LS175 cells. […] […]. […]

`CCc1ccc(CCOc2ccc(CC3SC(=O)NC3=O)cc2)nc1` (stereo not shown) [pioglitazone]: the entries for the “% lipid containing cells” value with NIH-vector cells (1 μM pioglitazone alone) and in the test on NIH-PPARγ cells (1 μM pioglitazone alone) were 0% and 60-70%, respectively. Besides, the “degree of morphologically recognizable differentiation” value is 40% in the test with LS857 cells (LS857 cells, 10 μM) and 75% with LS175 cells.
As for `Cc1cc2c(cc1C1(c3ccc(C(=O)O)cn3)CC1)C(C)(C)CCC2(C)C` [LG268, 6-[1-(8 pentamethyl-5,6,7,8-tetrahydronaphthalen-2-yl)cyclopropyl]nicotinic acid], the entries for the “% lipid containing cells” value with NIH-vector cells (50 nM LG268 alone) and with NIH-PPARγ cells (50 nM LG268 alone) were 0% and 50-65%, respectively. Also, the “adipogenic effect (in words)” value in the test with NIH-vector cells is listed as “no effect”. Further, the “lipid accumulation, oil red O, macroscopic view of culture dishes” value with LS857 cells (LS857, 5 μM thiazolidinedione, 50 nM LG268, four more days of culture) is “significant lipid accumulation”. For the same compound, the “adipocyte differentiation (in words)” value in the test with LS857 cells (LS857 cells, 50 nM LG268, 10 μM pioglitazone) is “significant degree of adipocyte differentiation”. Further, the “stimulation of adipocyte differentiation (in words)” value in the test on NIH-PPARγ cells (confluent NIH-PPARγ cells, 50 nM LG268, 1 μM pioglitazone) is on record as “significant stimulation of adipocyte differentiation”.
